Data from publication PMC5766609 (Scientific Reports, 2018).
Residues, ends and D or L forms follow the SMILES beside them.

Legend:
[1] = target: T1, human GLP-1 receptor (GLP1R) (Homo sapiens, UniProt P43220); assay: cAMP assay on CHO-JumpIn cells stably transfected with human GLP-1 receptor (HitHunter cAMP); format: cell-based; details: Table 2, cAMP accumulation, buffer PBS, 0.1% BSA, 100 μM RO 20-1724, 20% serum, 1 hr at RT, value ± spread, read-out: EC50 GLP1R;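 also: peptides tested as 4-fold serial dilution series, cells exposed 1 hr at RT in the dark, cAMP quantified against a cAMP standard calibration curve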
T1 construct: expressed in transfected cells; host or cells: CHO-JumpIn cells, stably transfected

[2] = target: T2, human glucagon receptor (GCGR) (Homo sapiens, UniProt P47871); assay: cAMP assay on CHO-JumpIn cells stably transfected with human glucagon receptor (HitHunter cAMP); format: cell-based; details: for EC50: Table 2, cAMP accumulation, CHO-JumpIn cells with human GCGR, buffer PBS, 0.1% BSA, 100 μM RO 20-1724, 20% serum, 1 hr at RT, value ± spread, read-out: EC50 GCGR;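 as to all read-outs here: peptides tested as 4-fold serial dilutions starting from a 2 µM solution, cells exposed 1 hr at RT in darkness, cAMP quantified against a cAMP standard curve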
T2 construct: expressed in transfected cells; host or cells: CHO-JumpIn cells, stably transfected
T2 sequence (P47871 26-477): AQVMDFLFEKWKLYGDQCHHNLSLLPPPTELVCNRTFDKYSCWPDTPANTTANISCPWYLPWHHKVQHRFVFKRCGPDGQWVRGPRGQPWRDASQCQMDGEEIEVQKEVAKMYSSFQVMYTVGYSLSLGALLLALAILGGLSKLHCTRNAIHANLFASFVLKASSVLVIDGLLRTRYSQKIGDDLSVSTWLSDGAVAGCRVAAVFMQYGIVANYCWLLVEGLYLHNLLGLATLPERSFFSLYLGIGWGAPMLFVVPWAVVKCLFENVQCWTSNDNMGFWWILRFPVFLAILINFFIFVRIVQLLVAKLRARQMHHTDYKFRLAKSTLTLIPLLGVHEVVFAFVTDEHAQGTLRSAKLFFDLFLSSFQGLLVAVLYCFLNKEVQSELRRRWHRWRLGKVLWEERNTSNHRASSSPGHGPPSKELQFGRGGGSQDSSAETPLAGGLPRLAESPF

T1 sequence (P43220 24-463): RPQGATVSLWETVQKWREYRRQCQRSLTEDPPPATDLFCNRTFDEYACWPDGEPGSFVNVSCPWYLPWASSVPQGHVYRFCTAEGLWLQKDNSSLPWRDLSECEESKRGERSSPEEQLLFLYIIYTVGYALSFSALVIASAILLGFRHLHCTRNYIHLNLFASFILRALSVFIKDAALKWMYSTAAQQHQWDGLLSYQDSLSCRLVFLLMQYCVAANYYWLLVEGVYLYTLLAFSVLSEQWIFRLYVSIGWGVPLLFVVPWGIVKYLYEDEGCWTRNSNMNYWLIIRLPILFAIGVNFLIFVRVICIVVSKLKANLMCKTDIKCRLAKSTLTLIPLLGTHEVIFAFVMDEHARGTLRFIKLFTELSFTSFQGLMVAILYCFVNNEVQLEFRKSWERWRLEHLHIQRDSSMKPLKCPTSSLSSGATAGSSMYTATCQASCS

Row | EC50 [1] [pM] | EC50 [2] [pM] | activation of the receptors (in words) ([2]; both receptors (GCGR and GLP1R) not activated) | Compound
1 | > 200000 | 26 ± 4 |  | CC[C@H](C)[C@H](NC(=O)CNC(=O)[C@H](CCC(N)=O)NC(=O)[C@H](CO)NC(=O)[C@@H](N)Cc1c[nH]cn1)C(=O)N[C@@H](Cc1ccccc1)C(=O)N[C@@H](Cc1ccccc1)C(=O)N[C@@H](CO)C(=O)N[C@@H](CC(=O)O)C(=O)N[C@@H](Cc1ccc(O)cc1)C(=O)N[C@@H](CO)C(=O)N[C@@H](CCCCN)C(=O)N[C@@H](Cc1ccc(O)cc1)C(=O)N[C@@H](CC(C)C)C(=O)N[C@@H](CC(=O)O)C(=O)N[C@@H](CO)C(=O)N[C@@H](CCCNC(=N)N)C(=O)N[C@@H](CCCNC(=N)N)C(=O)N[C@@H](C)C(=O)N[C@@H](CCC(N)=O)C(=O)N[C@@H](CC(=O)O)C(=O)N[C@@H](Cc1ccccc1)C(=O)N[C@H](C(=O)N[C@@H](CCC(N)=O)C(=O)N[C@@H](Cc1c[nH]c2ccccc12)C(=O)N[C@@H](CC(C)C)C(=O)N[C@@H](CCSC)C(=O)N[C@@H](CC(N)=O)C(=O)N[C@H](C(N)=O)[C@@H](C)O)C(C)C [Peptide 30] (H-HSQGIFFSDYSKYLDSRRAQDFVQWLMNT-NH2)
2 | 18 ± 1 | 26 ± 1 |  | CC(C)C[C@H](NC(=O)[C@H](Cc1ccc(O)cc1)NC(=O)[C@H](CCCCN)NC(=O)[C@H](CO)NC(=O)[C@H](Cc1ccc(O)cc1)NC(=O)[C@H](CC(=O)O)NC(=O)[C@H](CO)NC(=O)[C@@H](NC(=O)[C@H](Cc1ccccc1)NC(=O)[C@@H](NC(=O)CNC(=O)[C@H](CCC(N)=O)NC(=O)[C@H](CO)NC(=O)[C@@H](N)Cc1c[nH]cn1)[C@@H](C)O)[C@@H](C)O)C(=O)N[C@@H](CC(=O)O)C(=O)N[C@@H](CO)C(=O)N[C@@H](CCCCN)C(=O)N[C@@H](CCCNC(=N)N)C(=O)N[C@@H](C)C(=O)N[C@@H](Cc1c[nH]cn1)C(=O)N[C@@H](CC(=O)O)C(=O)N[C@@H](Cc1ccccc1)C(=O)N[C@H](C(=O)N[C@@H](CCC(N)=O)C(=O)N[C@@H](Cc1c[nH]c2ccccc12)C(=O)N[C@@H](CC(C)C)C(=O)N[C@@H](CC(C)C)C(=O)N[C@@H](CC(N)=O)C(=O)N[C@H](C(N)=O)[C@@H](C)O)C(C)C [Peptide 24] (H-HSQGTFTSDYSKYLDSKRAHDFVQWLLNT-NH2)
3 | 1330 ± 209 | 26 ± 2 |  | CC[C@H](C)[C@H](NC(=O)[C@H](CC(=O)O)NC(=O)[C@H](CC(C)C)NC(=O)[C@H](Cc1ccc(O)cc1)NC(=O)[C@H](CCCCN)NC(=O)[C@H](CO)NC(=O)[C@H](Cc1ccc(O)cc1)NC(=O)[C@H](CC(=O)O)NC(=O)[C@H](CO)NC(=O)[C@@H](NC(=O)[C@H](Cc1ccccc1)NC(=O)[C@@H](NC(=O)CNC(=O)[C@H](CCC(N)=O)NC(=O)[C@H](CO)NC(=O)[C@@H](N)Cc1c[nH]cn1)[C@@H](C)O)[C@@H](C)O)C(=O)NCC(=O)N[C@@H](CCCNC(=N)N)C(=O)N[C@@H](C)C(=O)N[C@@H](CCC(N)=O)C(=O)N[C@@H](CC(=O)O)C(=O)N[C@@H](Cc1ccccc1)C(=O)N[C@H](C(=O)N[C@@H](CCC(N)=O)C(=O)N[C@@H](Cc1c[nH]c2ccccc12)C(=O)N[C@@H](CC(C)C)C(=O)N[C@@H](CC(C)C)C(=O)N[C@@H](CC(N)=O)C(=O)N[C@H](C(N)=O)[C@@H](C)O)C(C)C [Peptide 4] (H-HSQGTFTSDYSKYLDIGRAQDFVQWLLNT-NH2)
4 | 56 ± 12 | 37 ± 11 |  | CC[C@H](C)[C@H](NC(=O)[C@H](CO)NC(=O)[C@H](CC(=O)O)NC(=O)[C@H](CC(C)C)NC(=O)[C@H](Cc1ccc(O)cc1)NC(=O)[C@H](CCCCN)NC(=O)[C@H](CO)NC(=O)[C@H](Cc1ccc(O)cc1)NC(=O)[C@H](CC(=O)O)NC(=O)[C@H](CO)NC(=O)[C@@H](NC(=O)[C@H](Cc1ccccc1)NC(=O)[C@@H](NC(=O)CNC(=O)[C@H](CCC(N)=O)NC(=O)[C@H](CO)NC(=O)[C@@H](N)Cc1c[nH]cn1)[C@@H](C)O)[C@@H](C)O)C(=O)N[C@@H](CCCNC(=N)N)C(=O)N[C@@H](C)C(=O)N[C@@H](CCC(N)=O)C(=O)N[C@@H](CC(=O)O)C(=O)N[C@@H](Cc1ccccc1)C(=O)N[C@H](C(=O)N[C@@H](CCC(N)=O)C(=O)N[C@@H](Cc1c[nH]c2ccccc12)C(=O)N[C@@H](CC(C)C)C(=O)N[C@@H](CCSC)C(=O)N[C@@H](CC(=O)O)C(=O)N[C@H](C(N)=O)[C@@H](C)O)C(C)C [Peptide 18] (H-HSQGTFTSDYSKYLDSIRAQDFVQWLMDT-NH2)
5 | 59 ± 3 | 79 ± 33 |  | CSCC[C@H](NC(=O)[C@H](CCCNC(=N)N)NC(=O)[C@H](CO)NC(=O)[C@H](CC(=O)O)NC(=O)[C@H](CC(C)C)NC(=O)[C@H](Cc1ccc(O)cc1)NC(=O)[C@H](CCCCN)NC(=O)[C@H](CO)NC(=O)[C@H](Cc1ccc(O)cc1)NC(=O)[C@H](CC(=O)O)NC(=O)[C@H](CO)NC(=O)[C@@H](NC(=O)[C@H](Cc1ccccc1)NC(=O)[C@@H](NC(=O)CNC(=O)[C@H](CCC(N)=O)NC(=O)[C@H](CO)NC(=O)[C@@H](N)Cc1c[nH]cn1)[C@@H](C)O)[C@@H](C)O)C(=O)N[C@@H](C)C(=O)N[C@@H](Cc1ccc(O)cc1)C(=O)N[C@@H](CC(=O)O)C(=O)N[C@@H](Cc1ccccc1)C(=O)N[C@H](C(=O)N[C@@H](CCC(N)=O)C(=O)N[C@@H](Cc1c[nH]c2ccccc12)C(=O)N[C@@H](CC(C)C)C(=O)N[C@@H](CCSC)C(=O)N[C@@H](CC(N)=O)C(=O)N[C@H](C(N)=O)[C@@H](C)O)C(C)C [Peptide 33] (H-HSQGTFTSDYSKYLDSRMAYDFVQWLMNT-NH2)
6 | 133 ± 32 | 25 ± 1 |  | CSCC[C@H](NC(=O)[C@H](CC(C)C)NC(=O)[C@H](CO)NC(=O)[C@H](CC(=O)O)NC(=O)[C@H](CC(C)C)NC(=O)[C@H](Cc1ccc(O)cc1)NC(=O)[C@H](CCCCN)NC(=O)[C@H](CO)NC(=O)[C@H](Cc1ccc(O)cc1)NC(=O)[C@H](CC(=O)O)NC(=O)[C@H](CO)NC(=O)[C@@H](NC(=O)[C@H](Cc1ccccc1)NC(=O)[C@@H](NC(=O)CNC(=O)[C@H](CCC(N)=O)NC(=O)[C@H](CO)NC(=O)[C@@H](N)Cc1c[nH]cn1)[C@@H](C)O)[C@@H](C)O)C(=O)N[C@@H](C)C(=O)N[C@@H](CCC(N)=O)C(=O)N[C@@H](CC(=O)O)C(=O)N[C@@H](Cc1ccccc1)C(=O)N[C@H](C(=O)N[C@@H](CCC(N)=O)C(=O)N[C@@H](Cc1c[nH]c2ccccc12)C(=O)N[C@@H](CC(C)C)C(=O)N[C@@H](CCSC)C(=O)N[C@@H](CO)C(=O)N[C@H](C(N)=O)[C@@H](C)O)C(C)C [Peptide 5] (H-HSQGTFTSDYSKYLDSLMAQDFVQWLMST-NH2)
7 | 17 ± 1 | 19 ± 1 |  | CC(C)C[C@H](NC(=O)[C@H](Cc1ccc(O)cc1)NC(=O)[C@H](CCCCN)NC(=O)[C@H](CO)NC(=O)[C@H](Cc1ccc(O)cc1)NC(=O)[C@H](CC(=O)O)NC(=O)[C@H](CO)NC(=O)[C@@H](NC(=O)[C@H](Cc1ccccc1)NC(=O)[C@@H](NC(=O)CNC(=O)[C@H](CCC(N)=O)NC(=O)[C@H](CO)NC(=O)[C@@H](N)Cc1c[nH]cn1)[C@@H](C)O)[C@@H](C)O)C(=O)N[C@@H](CC(=O)O)C(=O)N[C@@H](Cc1c[nH]c2ccccc12)C(=O)N[C@@H](CCCNC(=N)N)C(=O)N[C@@H](CCCNC(=N)N)C(=O)N[C@@H](C)C(=O)N[C@@H](CCC(N)=O)C(=O)N[C@@H](CC(=O)O)C(=O)N[C@@H](Cc1ccccc1)C(=O)N[C@H](C(=O)N[C@@H](CCC(N)=O)C(=O)N[C@@H](Cc1c[nH]c2ccccc12)C(=O)N[C@@H](CC(C)C)C(=O)N[C@@H](CCC(N)=O)C(=O)N[C@@H](CC(N)=O)C(=O)N[C@H](C(N)=O)[C@@H](C)O)C(C)C [Peptide 23]
8 | > 200000 | > 20000 | did not activate | CSCC[C@H](NC(=O)[C@H](CO)NC(=O)[C@H](C)N)C(=O)N[C@@H](Cc1ccccc1)C(=O)N[C@H](C(=O)N[C@@H](Cc1ccccc1)C(=O)N[C@@H](Cc1ccccc1)C(=O)N[C@@H](CO)C(=O)N[C@@H](CC(=O)O)C(=O)N[C@@H](Cc1ccc(O)cc1)C(=O)N[C@@H](CO)C(=O)N[C@@H](CCCCN)C(=O)N[C@@H](Cc1ccc(O)cc1)C(=O)N[C@@H](CC(C)C)C(=O)N[C@@H](CC(=O)O)C(=O)N[C@@H](CO)C(=O)N[C@@H](CCCNC(=N)N)C(=O)N[C@@H](CCCNC(=N)N)C(=O)N[C@@H](C)C(=O)N[C@@H](CCC(N)=O)C(=O)N[C@@H](CC(=O)O)C(=O)N[C@@H](Cc1ccccc1)C(=O)N[C@H](C(=O)N[C@@H](CCC(N)=O)C(=O)N[C@@H](Cc1c[nH]c2ccccc12)C(=O)N[C@@H](CC(C)C)C(=O)N[C@@H](CCSC)C(=O)N[C@@H](CC(C)C)C(=O)N[C@H](C(N)=O)[C@@H](C)O)C(C)C)[C@@H](C)O [Peptide 15] (H-ASMFTFFSDYSKYLDSRRAQDFVQWLMLT-NH2; N-terminus assumed)
9 | 80 ± 6 | 32 ± 3 |  | CSCC[C@H](NC(=O)[C@H](CC(C)C)NC(=O)[C@H](Cc1c[nH]c2ccccc12)NC(=O)[C@H](CCC(N)=O)NC(=O)[C@@H](NC(=O)[C@H](Cc1ccccc1)NC(=O)[C@H](CC(=O)O)NC(=O)[C@H](CCC(N)=O)NC(=O)[C@H](C)NC(=O)[C@H](CCCNC(=N)N)NC(=O)[C@H](CCCNC(=N)N)NC(=O)[C@H](CO)NC(=O)[C@H](CC(=O)O)NC(=O)[C@H](CC(C)C)NC(=O)[C@H](Cc1ccc(O)cc1)NC(=O)[C@H](CCCCN)NC(=O)[C@H](CO)NC(=O)[C@H](Cc1ccc(O)cc1)NC(=O)[C@H](CC(=O)O)NC(=O)[C@H](CO)NC(=O)[C@@H](NC(=O)[C@H](Cc1ccccc1)NC(=O)[C@@H](NC(=O)CNC(=O)[C@H](Cc1c[nH]cn1)NC(=O)[C@H](CO)NC(=O)[C@@H](N)Cc1c[nH]cn1)[C@@H](C)O)[C@@H](C)O)C(C)C)C(=O)N[C@H](C(=O)N[C@H](C(N)=O)[C@@H](C)O)[C@@H](C)O [Peptide 29]
